“And” between values parts separate entries of the source, which are not always exact repeats. Equal entries are not always repeated.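 Protocol summary: plate cells (96-well), add compound at 5 concentrations, incubate 48 h, interpolate endpoints linearly. GI50 is the concentration that inhibits growth by half. At the TGI there is no net growth.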
Columns and labels:
Experiment in all cases: NCI tumour cell line growth inhibition, 48 h
BT-549 breast = system: BT-549 breast
MDA-MB-435 = system: MDA-MB-435
MOLT-4 leukemia = system: MOLT-4 leukemia
NCI-H460 lung = system: NCI-H460 lung
OVCAR-3 ovarian = system: OVCAR-3 ovarian
PC-3 prostate = system: PC-3 prostate
SK-MEL-5 melanoma = system: SK-MEL-5 melanoma
SK-OV-3 ovarian = system: SK-OV-3 ovarian
SN12C renal = system: SN12C renal
U251 CNS = system: U251 CNS

Structure (SMILES) | GI50 (BT-549 breast) | TGI (BT-549 breast) [µM] | GI50 (MDA-MB-435) | TGI (MDA-MB-435) [µM] | GI50 (MOLT-4 leukemia) | GI50 (NCI-H460 lung) | TGI (NCI-H460 lung) [µM] | GI50 (OVCAR-3 ovarian) | TGI (OVCAR-3 ovarian) | GI50 (PC-3 prostate) | TGI (PC-3 prostate) [µM] | GI50 (SK-MEL-5 melanoma) | TGI (SK-MEL-5 melanoma) [µM] | GI50 (SK-OV-3 ovarian) | TGI (SK-OV-3 ovarian) | GI50 (SN12C renal) | TGI (SN12C renal) [µM] | GI50 (U251 CNS) | TGI (U251 CNS) [µM] | TGI (MOLT-4 leukemia) [µM]
COc1ccc(Nc2c3c4c(cccc4[nH]c2=O)C(=O)c2ccccc2-3)cc1 | 0.0268 µM | 0.0708 | 0.0335 µM | > 100 | 0.558 µM | < 0.01 µM | 10.1 | < 0.0158 µM | < 0.0257 µM | 0.0473 µM | > 100 | < 0.0172 µM | 0.0451 | 0.0492 µM | > 56.3 µM | 0.0544 µM | > 100 | 0.0434 µM | > 68.9 | 
CCOc1cc(C=O)c2c(ccc3ccc(OC)c(OC)c32)c1OC |  | > 100 |  | > 100 |  |  | > 100 |  | > 100 µM |  | > 100 |  | > 100 |  | > 100 µM |  | > 100 |  | > 100 | > 100
O=C(CCCCCCC(=O)N/N=C/c1ccc(N(c2ccccc2)c2ccccc2)cc1)NO | 2.38 µM | 11.5 | 3.16 µM | 18.5 | 1.88 µM | 1.54 µM | 8.58 | 1.45 µM | 4.58 µM | 2.39 µM | 10.7 | 1.76 µM | 3.63 | 1.6 µM | 5.29 µM | 2.94 µM | 13.5 | 1.75 µM | 4.46 | 10.3
CCCCCCCCCCCC1=NC(C)(C)CN1CCO | 13.6 µM | 34.3 | 2.51 µM | 6.98 | 3.23 µM | 2.88 µM | 7.66 | 5.87 µM | 11.3 µM | 3.29 µM | 17.2 | 12 µM | 25.1 | 14.8 µM | 29.2 µM | 9.95 µM | 24.8 | 2.8 µM | 9.46 | 9.94
CCOCCc1c(O)nc(SC)[nH]c1=O | > 100 µM | > 100 | > 100 µM | > 100 | > 100 µM | > 100 µM | > 100 | > 100 µM | > 100 µM | > 100 µM | > 100 | > 100 µM | > 100 | > 100 µM | > 100 µM | > 100 µM | > 100 | > 100 µM | > 100 | > 100
O=C1Nc2cc(Cl)ccc2Oc2cc(Oc3ccccc3)ccc21 | 8.97 µM | 51.1 | 0.761 µM | 5.85 | 4.78 µM | 2.91 µM | 11.7 | 2.53 µM | 7.32 µM | 4.85 µM | 48.4 | 3.13 µM | 15.1 | 4.66 µM | 17.4 µM | 5.52 µM | 71.1 | 5.26 µM | 23.8 | > 100
CC1(C)Cc2cccc(OCC(O)CN3CCN(c4ccc(F)cc4)CC3)c2O1 (centres undefined) | 17.3 µM | 39.8 | 10.5 µM | 25.7 | 20.2 µM | 15.3 µM | > 50 | 22.9 µM | > 50 µM | 14 µM | > 50 | 6.99 µM | 13.9 | 23.2 µM | > 50 µM | 18.9 µM | > 50 | 12.8 µM | 39.8 | > 50
CC(C)(C)C(=O)OCOP(=O)(OCOC(=O)C(C)(C)C)C1CCCN(OC(=O)c2ccccc2)C1=O (centres undefined) | 2.64 µM | 17.9 | 3 µM | 17.6 | 1.02 µM | 1.11 µM | 15.3 | 1.24 µM | 7.28 µM | 4.38 µM | > 100 | 0.983 µM | 3.28 | 1.99 µM | 27.1 µM | 0.337 µM | 7.19 | 0.919 µM | 10.5 | 8.45
O=C(Nc1ncc(Cc2ccccc2)s1)c1ccc2c(c1)OCCO2 | 0.267 µM | > 100 | 0.0187 µM | 0.0436 | 0.146 µM | 0.0375 µM | > 34.5 | 0.0336 µM | 1.01 µM | 0.0424 µM | > 100 | 0.0428 µM | 0.454 | 0.0681 µM | 26.9 µM | 0.0748 µM | > 100 | 0.0418 µM | > 100 | > 100
CCOC(=O)c1c[nH]c2c(OCc3ccccc3)c3ccccc3c(O)c2c1=O | 12.7 µM | 37.8 | 6.44 µM | 15.6 | 6.24 µM | 4.29 µM | > 47.5 | 11.1 µM | 51 µM | 2.97 µM | > 68 | 2.55 µM | 7.52 | 26.3 µM | > 100 µM | 22.2 µM | > 100 | 5.78 µM | 25.4 | > 100
C/C(=N\Nc1ccc2ccccc2n1)c1ccccc1O |  | > 100 |  | > 100 |  |  | > 100 |  | > 20 µM |  | > 100 |  | > 100 |  | > 57.6 µM |  | > 100 |  | > 100 | > 58.5
CS(=O)(=O)N1CCN(Cc2cc3nc(-c4cccc5[nH]ncc45)nc(N4CCOCC4)c3s2)CC1 | 0.271 µM and 0.231 µM | > 100 | 0.728 µM and 0.276 µM | > 100 | 0.315 µM and 0.302 µM | 0.357 µM and 0.311 µM | > 100 | 0.245 µM and 0.194 µM | 3.82 µM and > 5.15 µM | 0.218 µM and 0.26 µM | > 100 | 1.11 µM and 0.537 µM | > 100 | 0.243 µM and 0.145 µM | 3.84 µM and 1.68 µM | 0.493 µM and 0.224 µM | > 100 | 1.05 µM and 0.684 µM | > 100 | > 100
C=C1C(=O)O[C@H]2[C@H]1CC/C(C=Nc1ccc(C(F)(F)F)cc1N)=C\CC[C@@]1(C)O[C@@H]21 | 7.04 µM | 20.2 | 4.74 µM | 17.2 | 3.06 µM | 7.07 µM | 22.7 | 2.75 µM | 11.3 µM | 9.08 µM | 23.4 | 13.5 µM | 26.7 | 16.3 µM | 30 µM | 10.1 µM | 26.6 | 10.9 µM | 23.9 | 9.67

— PubChem BioAssay (NCI)
